Counter-ions that a name gives are not always drawn. Like-named read-outs stand apart in the source and are kept apart here. Bridge positions count the residues as written; N and C are the ends. Square brackets hold non-standard residues; d marks the D form. Peptide text beside a SMILES is read from it. * marks the point of attachment. ξ: configuration not given here. Acetyl(2-(piperazin-1-yl)) = O=C(CN1CCNCC1)*; ξβ3hGly(cHex) = NC(CC(=O)*)C1CCCCC1; Thr(3ξ) = CC(O)[C@H](N)C(=O)O; X10 = NC1(CC(=O)*)CCCCC1; Dab = NCC[C@H](N)C(=O)O; Inp = O=C(O)C1CCNCC1
What was measured:
P. aeruginosa ATCC 27853 = settings: for effect on thigh burdens: 2 or 4 mg/kg IV three times at 1, 3.5 and 6 hours post infection; for Log reduction from vehicle (CFU/g): ATCC 27853, in vivo, iv, 6 h
Pseudomonas aeruginosa [1] = assay: MIC, compound in combination with a second agent (broth microdilution); type: cell-based; settings: 1:1 (wt:wt) combination with Rifampicin, MIC = total drug concentration; for MIC P. aeruginosa ATCC 27853: strain ATCC 27853; for MIC P. aeruginosa ATCC CRM-9027: strain ATCC CRM-9027; for MIC P. aeruginosa ATCC-47: strain ATCC-47; for MIC P. aeruginosa CCUG 59626: strain CCUG 59626
Outline: (§1)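 Read-out is the total-drug MIC of a 1:1 weight ratio combination with another agent, e.g. rifampicin. Duplicates within 2-fold gave the lower value; wider spread meant a non-valid assay. Where compounds were tested multiple times, the mode is given.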

Klebsiella pneumoniae [2] = assay: as above; type: cell-based; settings: 1:1 (wt:wt) combination with Rifampicin, MIC = total drug concentration; for MIC K. pneumoniae ATCC-BAA-2146: strain ATCC-BAA-2146; for MIC K. pneumoniae CCUG-59348: strain CCUG-59348; for MIC K. pneumoniae ATCC 4352: strain ATCC 4352
Outline: as §1

Escherichia coli [3] = assay: as above; type: cell-based; settings: 1:1 (wt:wt) combination with Rifampicin, MIC = total drug concentration; for MIC E. coli ATCC25922: strain ATCC25922; for MIC E. coli NCTC9001: strain NCTC9001
Outline: as §1

Acinetobacter baumannii [4] = assay: as above; type: cell-based; settings: 1:1 (wt:wt) combination with Rifampicin, MIC = total drug concentration; for MIC A. baumannii ATCC BAA-747: strain ATCC BAA-747; for MIC A. baumannii CCUG57249: strain CCUG57249; for MIC A. baumannii NCTC 13423: strain NCTC 13423; for MIC A. baumannii NCTC 13424: strain NCTC 13424
Outline: as §1

Pseudomonas aeruginosa [5] = assay: MIC, sole activity (no second agent); type: cell-based; settings: in the absence of Rifampicin; for MIC P. aeruginosa ATCC 27853: strain ATCC27853; for MIC P. aeruginosa ATCC-47: strain ATCC-47; for MIC P. aeruginosa ATCCCRM-9027: strain ATCCCRM-9027; for MIC P. aeruginosa CCUG 59626: strain CCUG 59626
Outline: (§2)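 Up to four strains per species were tested in cation-adjusted Mueller-Hinton broth, with inoculum made by direct colony suspension from 18-24 hour Mueller-Hinton agar plates, adjusted to 0.5 McFarland. Duplicates differing by under 2-fold gave the lower value; greater spread voided the run. Values are relative to Polymyxin B.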

Klebsiella pneumoniae [6] = assay: MIC, sole activity (no second agent); type: cell-based; settings: in the absence of Rifampicin; for MIC K. pneumoniae ATCC 4352: strain ATCC 4352; for MIC K. pneumoniae ATCC-BAA2146: strain ATCC-BAA2146; for MIC K. pneumoniae CCUG-59348: strain CCUG-59348
Outline: as §2

Escherichia coli [7] = assay: MIC, sole activity (no second agent); type: cell-based; settings: in the absence of Rifampicin; for MIC E. coli NCTC9001: strain NCTC9001; for MIC E. coli ATCC25922: strain ATCC25922
Outline: as §2

Acinetobacter baumannii [8] = assay: MIC, sole activity (no second agent); type: cell-based; settings: in the absence of Rifampicin; for MIC A. baumannii ATCCBAA-747: strain ATCCBAA-747; for MIC A. baumannii NCTC 13423: strain NCTC13423; for MIC A. baumannii ATCC13424: strain ATCC13424; for MIC A. baumannii CCUG57249: strain CCUG 57249
Outline: as §2

| MIC P. aeruginosa ATCC 27853 (Pseudomonas aeruginosa [1]) [micrograms/mL] | MIC P. aeruginosa ATCC CRM-9027 (Pseudomonas aeruginosa [1]) [micrograms/mL] | MIC P. aeruginosa ATCC-47 (Pseudomonas aeruginosa [1]) [micrograms/mL] | MIC P. aeruginosa CCUG 59626 (Pseudomonas aeruginosa [1]) [micrograms/mL] | MIC K. pneumoniae ATCC-BAA-2146 (Klebsiella pneumoniae [2]) [micrograms/mL] | MIC K. pneumoniae CCUG-59348 (Klebsiella pneumoniae [2]) [micrograms/mL] | MIC E. coli ATCC25922 (Escherichia coli [3]) [micrograms/mL] | MIC E. coli NCTC9001 (Escherichia coli [3]) [micrograms/mL] | MIC A. baumannii ATCC BAA-747 (Acinetobacter baumannii [4]) [micrograms/mL] | MIC A. baumannii CCUG57249 (Acinetobacter baumannii [4]) [micrograms/mL] | MIC A. baumannii NCTC 13423 (Acinetobacter baumannii [4]) [micrograms/mL] | MIC A. baumannii NCTC 13424 (Acinetobacter baumannii [4]) [micrograms/mL] | MIC P. aeruginosa ATCC-47 (Pseudomonas aeruginosa [5]) [micrograms/mL] | MIC P. aeruginosa ATCCCRM-9027 (Pseudomonas aeruginosa [5]) [micrograms/mL] | MIC P. aeruginosa CCUG 59626 (Pseudomonas aeruginosa [5]) [micrograms/mL] | MIC K. pneumoniae ATCC 4352 (Klebsiella pneumoniae [6]) [micrograms/mL] | MIC K. pneumoniae ATCC-BAA2146 (Klebsiella pneumoniae [6]) [micrograms/mL] | MIC K. pneumoniae CCUG-59348 (Klebsiella pneumoniae [6]) [micrograms/mL] | MIC E. coli NCTC9001 (Escherichia coli [7]) [micrograms/mL] | MIC K. pneumoniae ATCC 4352 (Klebsiella pneumoniae [2]) [micrograms/mL] | Compound | other results |
| --- | --- | --- | --- | --- | --- | --- | --- | --- | --- | --- | --- | --- | --- | --- | --- | --- | --- | --- | --- | --- | --- |
| 0.125 | 0.25 | ≤0.06 | 0.125 | 0.125 | 4 | ≤0.06 | 0.125 | 0.125 | ≤0.06 | ≤0.06 | ≤0.06 |  |  |  |  |  |  |  |  | CC(C)C[C@@H]1NC(=O)[C@@H](Cc2ccccc2)NC(=O)[C@H](CCN)NC(=O)[C@@H](NC(=O)[C@H](CCN)NC(=O)[C@@H](NC(=O)CC2(N)CCCCC2)C(C)O)CCNC(=O)[C@H](C(C)O)NC(=O)[C@H](CCN)NC(=O)[C@H](CCN)NC1=O (stereo partly shown) [Example 42, 2-(1-aminocyclohexyl) ethanoyl Polymyxin B nonapeptide TFA salt] (X10-[Thr(3ξ)][Dab][Dab][Dab][dF]L[Dab][Dab][Thr(3ξ)]; lactam 3-C) | effect on thigh burdens (P. aeruginosa ATCC 27853): did not reduce thigh burdens significantly; Log reduction from vehicle (CFU/g) (P. aeruginosa ATCC 27853; 2 mg/kg): −0.03 log CFU/g; Log reduction from vehicle (CFU/g) (P. aeruginosa ATCC 27853; 4 mg/kg): −0.28 log CFU/g |
| 1 | 1 | 2 | 1 | 2 | 2 | 0.25 | 0.5 | 0.125 | ≤0.06 | 0.125 | ≤0.06 | 8 | 0.5 | 1 | 0.5 | 4 | >32 | >32 | 0.25 | CC(C)C[C@@H]1NC(=O)[C@@H](Cc2ccccc2)NC(=O)[C@H](CCN)NC(=O)[C@@H](NC(=O)[C@@H](CO)NC(=O)[C@@H](NC(=O)CC(N)C2CCCCC2)[C@@H](C)O)CCNC(=O)[C@H](C(C)O)NC(=O)[C@H](CCN)NC(=O)[C@H](CCN)NC1=O (stereo partly drawn) [Example 48, [3-Amino-3-cyclohexyl-propionyl]-L-Thr-D-Ser-polymyxin B heptapeptide, TFA salt] ({ξβ3hGly(cHex)}-T[dS][Dab][Dab][dF]L[Dab][Dab][Thr(3ξ)]; lactam 3-C) | MIC P. aeruginosa ATCC 27853 (Pseudomonas aeruginosa [5]): 4 micrograms/mL; MIC A. baumannii ATCCBAA-747 (Acinetobacter baumannii [8]): 0.25 micrograms/mL; MIC A. baumannii NCTC 13423 (Acinetobacter baumannii [8]): 0.25 micrograms/mL |
| 0.125 | 0.125 | 0.25 | 0.25 | 0.25 | 8 | ≤0.06 | 0.125 | 0.125 | 0.125 | 0.125 | 0.125 | 32 | 0.5 | 2 | 4 | 16 | >32 | >32 | ≤0.06 | CC(C)C[C@H]1NC(=O)[C@H](CCN)NC(=O)[C@@H](NC(=O)[C@H](CCN)NC(=O)[C@@H](NC(=O)CC(N)C2CCCCC2)C(C)O)CCNC(=O)[C@H](C(C)O)NC(=O)[C@H](CCN)NC(=O)[C@H](CCN)NC(=O)[C@H](C(C)O)NC1=O (stereo partly drawn) [Example 50, 3-Amino-3-cyclohexyl propanoyl-Thr-Dab-(cyclo)Dab*-Dab-DLeu-Thr-Dab-Dab-Thr*] ({ξβ3hGly(cHex)}-[Thr(3ξ)][Dab][Dab][Dab][dL][Thr(3ξ)][Dab][Dab][Thr(3ξ)]; lactam 3-C) | MIC P. aeruginosa ATCC 27853 (Pseudomonas aeruginosa [5]): 32 micrograms/mL; MIC E. coli ATCC25922 (Escherichia coli [7]): >32 micrograms/mL; MIC A. baumannii ATCC13424 (Acinetobacter baumannii [8]): 4 micrograms/mL; MIC A. baumannii ATCCBAA-747 (Acinetobacter baumannii [8]): 4 micrograms/mL; MIC A. baumannii CCUG57249 (Acinetobacter baumannii [8]): 4 micrograms/mL; MIC A. baumannii NCTC 13423 (Acinetobacter baumannii [8]): 2 micrograms/mL |
| 0.25 | 0.25 | 0.5 | 0.5 | 1 | 4 | 0.125 | 0.5 | ≤0.06 | ≤0.06 | 0.125 |  | 32 | 0.125 | 0.25 | 2 | >32 | >32 | >32 | 0.125 | CC(C)C[C@@H]1NC(=O)[C@@H](Cc2ccccc2)NC(=O)[C@H](CCN)NC(=O)[C@@H](NC(=O)[C@H](CCCCN)NC(=O)[C@@H](NC(=O)C2CCNCC2)C(C)O)CCNC(=O)[C@H](C(C)O)NC(=O)[C@H](CCN)NC(=O)[C@H](CCN)NC1=O (stereo partly drawn) [Example 51, Piperidin-4-yl carbonyl-L-Thr-L-Lys-polymyxin B heptapeptide, TFA salt] (H-[Inp][Thr(3ξ)]K[Dab][Dab][dF]L[Dab][Dab][Thr(3ξ)]; lactam 4-C) | MIC E. coli ATCC25922 (Escherichia coli [7]): >32 micrograms/mL; MIC A. baumannii ATCC13424 (Acinetobacter baumannii [8]): 4 micrograms/mL; MIC A. baumannii ATCCBAA-747 (Acinetobacter baumannii [8]): 4 micrograms/mL; MIC A. baumannii CCUG57249 (Acinetobacter baumannii [8]): 4 micrograms/mL; MIC A. baumannii NCTC 13423 (Acinetobacter baumannii [8]): 8 micrograms/mL |
| 0.125 |  |  | 0.125 | 1 | 8 | ≤0.06 |  |  |  |  |  |  |  |  |  |  |  |  | 0.125 | CC(C)C[C@@H]1NC(=O)[C@@H](Cc2ccccc2)NC(=O)[C@H](CCN)NC(=O)[C@@H](NC(=O)[C@H](CCN)NC(=O)[C@@H](NC(=O)CN2CCNCC2)C(C)O)CCNC(=O)[C@H](C(C)O)NC(=O)[C@H](CCN)NC(=O)[C@H](CCN)NC1=O (stereo partly shown) [Example 52, (1-piperazine) ethanoyl polymyxin B nonapeptide, trifluoroacetate salt] ({Acetyl(2-(piperazin-1-yl))}-[Thr(3ξ)][Dab][Dab][Dab][dF]L[Dab][Dab][Thr(3ξ)]; lactam 3-C) | effect on thigh burdens (P. aeruginosa ATCC 27853): did not reduce thigh burdens significantly; Log reduction from vehicle (CFU/g) (P. aeruginosa ATCC 27853; 2 mg/kg): −0.14 log CFU/g; Log reduction from vehicle (CFU/g) (P. aeruginosa ATCC 27853; 4 mg/kg): −0.18 log CFU/g |
